One experiment concerns the target VEGFR2 (Homo sapiens, UniProt P35968). As to the kind of experiment: Kinase activity test (ReactionBiology), % enzyme activity relative to DMSO. In kind it is biochemical. More on the design: purchased ReactionBiology. As to conditions: VEGFR2.
The next experiment concerns the target T1, CK1d (Homo sapiens, UniProt P48730).
T1 construct: purchased ReactionBiology
The experiment is described as above. In kind it is biochemical. To be noted: CK1d.

The mark [1] stands for this setting: 1 uM, Average, read-out: % Enzyme Activity (relative to DMSO controls), Average.
Where [2] appears, read: 1 uM, replicate Data 1, read-out: % Enzyme Activity (relative to DMSO controls), Data 1.
Where [3] appears, read: 1 uM, replicate Data 2, read-out: % Enzyme Activity (relative to DMSO controls), Data 2.
[4] abbreviates: 10 uM, Average, read-out: % Enzyme Activity (relative to DMSO controls), Average.
Where [5] appears, read: 10 uM, replicate Data 1, read-out: % Enzyme Activity (relative to DMSO controls), Data 1.
[6] abbreviates: 10 uM, replicate Data 2, read-out: % Enzyme Activity (relative to DMSO controls), Data 2.

Each structure is given as a SMILES string. Read-outs that look alike come from different tables or passages of the source.

T1 sequence (P48730 whole entry): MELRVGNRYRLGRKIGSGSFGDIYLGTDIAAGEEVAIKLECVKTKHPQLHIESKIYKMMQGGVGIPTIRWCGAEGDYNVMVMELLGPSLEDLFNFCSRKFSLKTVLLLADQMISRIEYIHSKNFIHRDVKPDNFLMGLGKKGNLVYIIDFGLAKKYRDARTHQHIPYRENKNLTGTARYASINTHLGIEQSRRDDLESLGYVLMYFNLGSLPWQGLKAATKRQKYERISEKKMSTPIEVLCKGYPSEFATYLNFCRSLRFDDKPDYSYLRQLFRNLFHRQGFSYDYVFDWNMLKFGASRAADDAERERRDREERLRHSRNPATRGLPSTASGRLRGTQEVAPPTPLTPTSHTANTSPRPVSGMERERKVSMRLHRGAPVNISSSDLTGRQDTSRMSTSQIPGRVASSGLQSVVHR
Sequence of VEGFR2 (P35968 20-1356): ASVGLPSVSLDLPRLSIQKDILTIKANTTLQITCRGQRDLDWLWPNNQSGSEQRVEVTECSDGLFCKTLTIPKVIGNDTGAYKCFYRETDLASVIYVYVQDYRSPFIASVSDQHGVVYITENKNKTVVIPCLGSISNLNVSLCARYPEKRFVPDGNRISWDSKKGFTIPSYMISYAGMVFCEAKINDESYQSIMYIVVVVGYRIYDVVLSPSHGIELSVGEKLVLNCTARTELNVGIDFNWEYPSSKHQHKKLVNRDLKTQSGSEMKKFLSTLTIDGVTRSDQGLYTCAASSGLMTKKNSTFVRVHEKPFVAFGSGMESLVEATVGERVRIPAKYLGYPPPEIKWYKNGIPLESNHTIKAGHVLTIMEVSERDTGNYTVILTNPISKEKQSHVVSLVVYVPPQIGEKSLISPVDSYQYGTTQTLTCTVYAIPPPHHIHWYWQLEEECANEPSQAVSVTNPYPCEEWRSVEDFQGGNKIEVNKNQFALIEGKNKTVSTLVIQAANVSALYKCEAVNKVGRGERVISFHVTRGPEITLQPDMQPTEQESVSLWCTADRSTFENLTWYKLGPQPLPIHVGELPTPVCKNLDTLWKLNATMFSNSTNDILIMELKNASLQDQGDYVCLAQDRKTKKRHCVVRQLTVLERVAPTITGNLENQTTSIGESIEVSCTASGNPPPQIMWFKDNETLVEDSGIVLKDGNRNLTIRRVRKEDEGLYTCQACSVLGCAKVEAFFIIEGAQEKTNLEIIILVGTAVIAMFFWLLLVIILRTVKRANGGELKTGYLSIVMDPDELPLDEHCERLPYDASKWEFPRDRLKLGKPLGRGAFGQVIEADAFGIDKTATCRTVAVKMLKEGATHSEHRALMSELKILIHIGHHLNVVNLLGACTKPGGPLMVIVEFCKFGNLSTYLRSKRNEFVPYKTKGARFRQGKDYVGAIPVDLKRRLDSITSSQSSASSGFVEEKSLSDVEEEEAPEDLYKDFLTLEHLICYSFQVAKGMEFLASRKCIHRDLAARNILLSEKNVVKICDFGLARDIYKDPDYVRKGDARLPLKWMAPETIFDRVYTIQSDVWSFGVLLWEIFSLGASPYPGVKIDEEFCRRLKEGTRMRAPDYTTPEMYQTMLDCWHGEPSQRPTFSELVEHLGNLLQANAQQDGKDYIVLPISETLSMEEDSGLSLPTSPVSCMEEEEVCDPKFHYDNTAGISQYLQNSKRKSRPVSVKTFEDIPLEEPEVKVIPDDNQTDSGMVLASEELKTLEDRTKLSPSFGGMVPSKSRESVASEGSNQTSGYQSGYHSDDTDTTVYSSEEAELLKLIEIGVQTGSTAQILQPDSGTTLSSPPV

In the case of `CC(C)(Oc1ccc(CCNC(=O)c2ccc(Cl)cc2)cc1)C(=O)O` [Bezafibrate], the “% Enzyme Activity (relative to DMSO controls), Average” value stood at 106.10% on VEGFR2 (1 uM, Average) and 106.53% at VEGFR2 (10 uM, Average). Further, the “% Enzyme Activity (relative to DMSO controls), Data 1” value at VEGFR2 (1 uM, replicate Data 1) came out at 100.57%; on VEGFR2 (10 uM, replicate Data 1), 106.16%. The “% Enzyme Activity (relative to DMSO controls), Data 2” value on VEGFR2 (1 uM, replicate Data 2) was 111.63%; on VEGFR2 (10 uM, replicate Data 2) it was 106.89%.
For `COc1cccc2c1C(=O)c1c(O)c3c(c(O)c1C2=O)C[C@@](O)(C(=O)CO)C[C@@H]3O[C@H]1C[C@H](N)[C@H](O)[C@H](C)O1` [Doxorubicin], the “% Enzyme Activity (relative to DMSO controls), Average” value on VEGFR2 (1 uM, Average) turned out to be 110.51%; at VEGFR2 (10 uM, Average) it was 100.16%. Further, the “% Enzyme Activity (relative to DMSO controls), Data 1” value came out at 112.09% on VEGFR2 (1 uM, replicate Data 1) and 99.85% at VEGFR2 (10 uM, replicate Data 1). In addition, the “% Enzyme Activity (relative to DMSO controls), Data 2” value worked out at 108.92% on VEGFR2 (1 uM, replicate Data 2) and 100.47% on VEGFR2 (10 uM, replicate Data 2).
On to `C[C@]12CC[C@@H]3c4ccc(O)cc4CC[C@H]3[C@@H]1CCC2=O` [Estrone], for which the “% Enzyme Activity (relative to DMSO controls), Average” value was 106.40% on VEGFR2 (1 uM, Average) and 104.79% at VEGFR2 (10 uM, Average). The “% Enzyme Activity (relative to DMSO controls), Data 1” value is on record as 108.92% on VEGFR2 (1 uM, replicate Data 1) and 105.29% on VEGFR2 (10 uM, replicate Data 1). The “% Enzyme Activity (relative to DMSO controls), Data 2” value on VEGFR2 (1 uM, replicate Data 2) is given as 103.87%; on VEGFR2 (10 uM, replicate Data 2) it was 104.29%.
In the case of `Cn1c(=O)cc(N2CCC[C@@H](N)C2)n(Cc2ccccc2C#N)c1=O` [Alogliptin], the “% Enzyme Activity (relative to DMSO controls), Average” value at VEGFR2 (1 uM, Average) is 110.86%; at VEGFR2 (10 uM, Average), 104.24%. Besides, the “% Enzyme Activity (relative to DMSO controls), Data 1” value came to 108.92% on VEGFR2 (1 uM, replicate Data 1) and 106.32% on VEGFR2 (10 uM, replicate Data 1). Besides, the “% Enzyme Activity (relative to DMSO controls), Data 2” value at VEGFR2 (1 uM, replicate Data 2) is listed as 112.79%; at VEGFR2 (10 uM, replicate Data 2), 102.16%.
Turning to `CO[C@@]12[C@H](COC(N)=O)C3=C(C(=O)C(C)=C(N)C3=O)N1C[C@@H]1N[C@@H]12` [Mitomycin], the “% Enzyme Activity (relative to DMSO controls), Average” value on CK1d (1 uM, Average) is 98.48%; at CK1d (10 uM, Average) it was 158.59%. The “% Enzyme Activity (relative to DMSO controls), Data 1” value was found to be 100.68% at CK1d (1 uM, replicate Data 1) and 209.38% at CK1d (10 uM, replicate Data 1). Also, the “% Enzyme Activity (relative to DMSO controls), Data 2” value at CK1d (1 uM, replicate Data 2) worked out at 96.28%; on CK1d (10 uM, replicate Data 2), 107.8%.
In the case of `CC(=O)[C@]1(O)Cc2c(O)c3c(c(O)c2[C@@H](O[C@H]2C[C@H](N)[C@H](O)[C@H](C)O2)C1)C(=O)c1ccccc1C3=O` [Idarubicin], the “% Enzyme Activity (relative to DMSO controls), Average” value on VEGFR2 (1 uM, Average) turned out to be 111.69%; at VEGFR2 (10 uM, Average), 106.65%. Moreover, the “% Enzyme Activity (relative to DMSO controls), Data 1” value is on record as 111.85% at VEGFR2 (1 uM, replicate Data 1) and 105.86% on VEGFR2 (10 uM, replicate Data 1). The “% Enzyme Activity (relative to DMSO controls), Data 2” value at VEGFR2 (1 uM, replicate Data 2) amounted to 111.52%; at VEGFR2 (10 uM, replicate Data 2) it was 107.43%.
For the compound `CCCCC[C@H](O)/C=C/[C@H]1[C@H](O)CC(=O)[C@@H]1CCCCCCC(=O)O` [Alprostadil], the “% Enzyme Activity (relative to DMSO controls), Average” value at CK1d (1 uM, Average) came out at 100.17%; at CK1d (10 uM, Average) it was 106.64%. The “% Enzyme Activity (relative to DMSO controls), Data 1” value at CK1d (1 uM, replicate Data 1) was 100.59%; on CK1d (10 uM, replicate Data 1), 108.06%. In addition, the “% Enzyme Activity (relative to DMSO controls), Data 2” value amounted to 99.74% at CK1d (1 uM, replicate Data 2) and 105.21% at CK1d (10 uM, replicate Data 2).
As to `CCCc1nc(C)c2c(=O)[nH]c(-c3cc(S(=O)(=O)N4CCN(CC)CC4)ccc3OCC)nn12` [Vardenafil], the remaining activity at 1 µM worked out at 102% at CK1d (setting [1]), 100% at CK1d (setting [2]) and 104% on CK1d (setting [3]). Moreover, the remaining activity at 10 µM is 110% at CK1d (setting [4]), 107% at CK1d (setting [5]) and 112% at CK1d (setting [6]).
Take `CCC1=C(C)CN(C(=O)NCCc2ccc(S(=O)(=O)NC(=O)N[C@H]3CC[C@H](C)CC3)cc2)C1=O` [Glimepiride]: the “% Enzyme Activity (relative to DMSO controls), Average” value at CK1d (1 uM, Average) stood at 106.25%; on CK1d (10 uM, Average), 89.28%. Further, the “% Enzyme Activity (relative to DMSO controls), Data 1” value at CK1d (1 uM, replicate Data 1) is 107.91%; on CK1d (10 uM, replicate Data 1), 92.55%. The “% Enzyme Activity (relative to DMSO controls), Data 2” value on CK1d (1 uM, replicate Data 2) stood at 104.59%; at CK1d (10 uM, replicate Data 2) it was 86%.
`CC(C)CN(C[C@@H](O)[C@H](Cc1ccccc1)NC(=O)O[C@H]1CCOC1)S(=O)(=O)c1ccc(N)cc1` [Amprenavir]: on CK1d (1 uM, Average), the “% Enzyme Activity (relative to DMSO controls), Average” value was determined as 107.55%.
As for `CS(=O)(=O)c1ccc(C(=O)Nc2ccc(Cl)c(-c3ccccn3)c2)c(Cl)c1` [Vismodegib], the remaining activity at 1 µM at VEGFR2 (setting [1]), at VEGFR2 (setting [2]) and on VEGFR2 (setting [3]) was 103% throughout. Moreover, the remaining activity at 10 µM on VEGFR2 (setting [4]) stood at 91.1%; on VEGFR2 (setting [5]) it was 97.8%; at VEGFR2 (setting [6]), 84.5%.
With `CC1(C)S[C@@H]2[C@H](NC(=O)[C@H](N)c3ccccc3)C(=O)N2[C@H]1C(=O)O` [Ampicillin], the “% Enzyme Activity (relative to DMSO controls), Average” value at VEGFR2 (1 uM, Average) came out at 99.13%; on VEGFR2 (10 uM, Average) it was 96.01%. The “% Enzyme Activity (relative to DMSO controls), Data 1” value at VEGFR2 (1 uM, replicate Data 1) is on record as 103.06%; at VEGFR2 (10 uM, replicate Data 1), 95.11%. The “% Enzyme Activity (relative to DMSO controls), Data 2” value at VEGFR2 (1 uM, replicate Data 2) amounted to 95.2%; at VEGFR2 (10 uM, replicate Data 2), 96.91%.
With `Cc1ccc(C(=O)c2cc(O)c(O)c([N+](=O)[O-])c2)cc1` [Tolcapone, reference compound], the remaining activity at 1 µM at CK1d (setting [1]) was 91.7%; at CK1d (setting [2]), 91.5%; at CK1d (setting [3]), 91.9%; on CK1d (compound 1μM, relative to DMSO controls, read-out: % Enzyme activity at 1μM), 91.7%. The remaining activity at 10 µM at CK1d (setting [4]) is 35.6%; on CK1d (setting [5]), 33.2%; at CK1d (setting [6]), 38%; at CK1d (compound 10μM, relative to DMSO controls, read-out: % Enzyme activity at 10μM) it was 35.6%.
Turning to `CC(C)Nc1cccnc1N1CCN(C(=O)c2cc3cc(NS(C)(=O)=O)ccc3[nH]2)CC1` [Delavirdine], the “% Enzyme Activity (relative to DMSO controls), Average” value on CK1d (10 uM, Average) amounted to 101.06%.
`CC1=Nc2ccc(Cl)cc2S(=O)(=O)N1` [Diazoxide]: the “% Enzyme Activity (relative to DMSO controls), Average” value is given as 95.10% on CK1d (1 uM, Average) and 97.15% at CK1d (10 uM, Average). The “% Enzyme Activity (relative to DMSO controls), Data 1” value on CK1d (1 uM, replicate Data 1) is reported as 99.58%; on CK1d (10 uM, replicate Data 1) it was 96.56%. Moreover, the “% Enzyme Activity (relative to DMSO controls), Data 2” value on CK1d (1 uM, replicate Data 2) stood at 90.62%; at CK1d (10 uM, replicate Data 2), 97.73%.
In the case of `CCCCNc1ccc(C(=O)OCCN(C)C)cc1` [Tetracaine], the “% Enzyme Activity (relative to DMSO controls), Average” value came to 110.04% at CK1d (1 uM, Average) and 118.78% at CK1d (10 uM, Average). The “% Enzyme Activity (relative to DMSO controls), Data 1” value at CK1d (1 uM, replicate Data 1) is on record as 103.65%; on CK1d (10 uM, replicate Data 1), 119.29%. The “% Enzyme Activity (relative to DMSO controls), Data 2” value on CK1d (1 uM, replicate Data 2) worked out at 116.43%; on CK1d (10 uM, replicate Data 2), 118.26%.
